Reference: patent US5925618A, “Peptides useful as somatostatin antagonists” (American Cyanamid Company, priority 1998, dated 1999)
Square brackets hold non-standard residues; d marks the D form. Peptide text beside a SMILES is read from it.

Key:
[1] = target: T1, S. cerevisiae (yeast) cells expressing SRIF receptors (Rattus norvegicus, UniProt P30680); assay: Yeast bioassay for SRIF antagonist activity (LY364 cells growing in response to SRIF, zone of growth inhibition); type: cell-based; conditions: Sample type 4th iteration; 10 μL of 5 mg/mL on disk, SRIF 10 nM, read after 3 days
T1 construct: expressed in transfected cells; host or cells: S. cerevisiae strain LY364
T1 sequence (P30680 whole entry): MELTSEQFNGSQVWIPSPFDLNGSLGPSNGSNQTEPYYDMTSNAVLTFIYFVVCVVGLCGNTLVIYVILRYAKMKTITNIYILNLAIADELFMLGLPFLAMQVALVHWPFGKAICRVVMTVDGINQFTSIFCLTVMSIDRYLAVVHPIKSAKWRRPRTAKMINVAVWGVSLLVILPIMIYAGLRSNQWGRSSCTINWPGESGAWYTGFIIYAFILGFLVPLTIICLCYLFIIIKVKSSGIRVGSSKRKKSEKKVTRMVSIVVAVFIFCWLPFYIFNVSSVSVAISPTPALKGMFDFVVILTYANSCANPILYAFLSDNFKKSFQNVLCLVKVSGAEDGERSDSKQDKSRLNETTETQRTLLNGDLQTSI
Source text: SRIF antagonist assay using S. cerevisiae (yeast) cells expressing SRIF receptors that grow in response to SRIF
Agar plates containing LY364 cells that are growing in the presence of added SRIF are the basis for a sensitive SRIF antagonist assay, whereby zones of growth inhibition result from the addition of SRIF antagonists to the surface of the agar plate (see L. A. Price, et al., Molecular and Cellular Biology, 15, 6188-6195, 1995, incorporated herein by reference).
In this assay, LY364 cells are grown overnight in 2 mL of synthetic complete(SC) medium (3.4 g/L YNB without amino acids and ammonium sulfate, 10 g/L ammonium sulfate and 1.4 g/L CSM-ura-trp) with glucose (2%) and without uracil and tryptophan. These cells are washed and cultured for 4 to 8 hours in 5 mL of SC medium with lactate (3%) and without uracil and tryptophan, and finally grown overnight in 5 mL of SC medium with galactose (2%) and without uracil and tryptophan. Molten (50° C.) SC agar medium with galactose (2%) and without uracil, tryptophan and histidine is adjusted to pH 6.8 with KOH, mixed with 2×10^4 cells/mL and SRIF (S-14, 10 nM) and poured into square (20×20 cm) petri dishes. Sterile filter disks are placed on the surface of the agar, and saturated with 10 μL of water or DMSO containing 5 mg/mL test peptides. After three days, the plates display a uniform cloudy background of LY264 cells growing in response to the added SRIF. […] This zone is quantified by measuring its diameter (mm), which varies according to the potency of the SRIF antagonist. Those peptides or mixtures of peptides displaying the largest zones of inhibition are further characterized.
Values are compared among samples in the same experiment, as the degree of yeast growth varies somewhat from assay to assay. For the first five sample types, in which progressively less complex mixtures of peptides are found, this assay is the primary determining factor in choosing which samples form the basis of subsequent syntheses.
Plates are read after 3 days. Samples shown in Table I in bold type are chosen for further synthesis. In Table I, all amino acids are D-amino acids and dashes represent undefined amino acid residues.

[2] = target: T2, rat SSTR2 (Rattus norvegicus, UniProt P30680); assay: cAMP accumulation in forskolin-stimulated GH4 C1/SSTR2 cells; type: cell-based
T2 construct: expressed in transfected cells; host or cells: GH4C1 rat pituitary tumor cells
T2 sequence (P30680 whole entry): as above
Source text: A primary effect of SRIF upon mammalian cells is the reduction of cyclic adenosine 3',5'-monophosphate(cAMP) levels, via inhibition of adenylyl cyclase. This is the basis of a common assay for SRIF agonists and antagonists, whereby SRIF agonists reduce artificially stimulated cAMP levels, and SRIF antagonists reverse the effect of SRIF. The rat pituitary tumor cell line GH4 C1 predominantly expresses SSTR2, and responds to SRIF and to forskolin, a stimulator of adenylate cyclase (see C. M. Eppler, et al., J. Biol. Chem., 267, 15603-15612, 1992, incorporated herein by reference). A highly sensitive assay for SRIF agonists and antagonists results from additionally transfecting GH4 C1 cells with the cloned rat SSTR2, (see L. A. Price, et al., Molecular and Cellular Biology, 15, 6188-6195, 1995, incorporated herein by reference). This increases the response to SRIF and provides a greater dynamic range for the measurement of SRIF antagonist activity.
Stimulation of cells. GH4 C1 /SSTR2 cells, grown in DMEM with 10% bovine serum, are released from a tissue culture dish by incubation for several minutes at 37° C. with PBS containing 0.5 mM EDTA. Cells are washed in induction buffer (PBS containing 100 μM IBMX (an inhibitor of cAMP breakdown) and 2 mM CaCl2) at room temperature, and resuspended at 2×10^6 /mL in induction buffer. Into each well of a 96-well tray are added 50 μL of a 2× concentration of stimulants in induction buffer. These include (at final concentration) 1.25 μM forskolin, 100 nM SRIF or 10 nM of the SSTR2-selective agonist MK678 and test peptides at various concentrations. To initiate stimulation of the cells, 50 μL (100,000) cells are added to each well, mixed by shaking 10 seconds on a plate shaker and placed at 37° C. for 15 minutes. Stimulation is arrested and cells are lysed by adding 15 μL 0.33N HCl to each well and incubating the plate for 30 minutes at 37° C. Samples are neutralized by addition of 15 μL 0.25N NaOH/50 mM Hepes pH 7.4. Baseline cAMP levels are determined in samples with no added forskolin or SRIF, and each treatment is performed in triplicate.
cAMP assay. To measure accumulated cAMP in the samples, a radioimmunoassay is employed. The scintillation proximity assay (SPA, Amersham, Arlington Heights, Ill.) allows the rapid measurement of ^125 I cAMP bound to a specific antibody without separating bound radioligand from free radioligand. Each of the following reagents (50 μL) are added per well in a 96-well tray: supernatants from the cell stimulation; ^125 I cAMP; SPA beads conjugated to monkey anti-rabbit IgG antibodies; and rabbit anti-cAMP antibodies. For the standard curve, known amounts of cAMP (0.2-12.8 pmol) are added in place of cell supernatants. The 96-well tray is sealed, shaken at room temperature overnight and measured for bound radioligand in a MicroBeta liquid scintillation counter (Wallac, Gaithersburg, Md.). The standard curve is determined for each experiment by performing a nonlinear regression (exponential decay) analysis of cpm measured for the cAMP standards vs. their log concentrations, and test sample values are determined by using Prism software (Graphpad Software Inc., San Diego, Calif.) and are shown in Table II and FIG. 1. FIG. I illustrates the antagonist activity of Peptide 1.
The intrinsic activity of an SRIF antagonist is the percent reversal of the SSTR2, activation by SRIF or MK678, wherein 0% is defined by cAMP levels in samples treated with forskolin plus SRIF or MK678 and 100% is the cAMP level measured after treatment with forskolin alone. Therefore, increased intrinsic activity of a test compound indicates increased antagonist activity of said test compound.
FIG. […]
An inverse agonist is a compound that is not only a pure antagonist (i.e. lacking agonist activity), but also blocks the constitutive activity of an unoccupied receptor. One indication of inverse agonist activity is the ability of a SRIF antagonist to increase cAMP levels in the absence of added SRIF. […]

Inhibition Zone [1]: 18 mm | cAMP ([2]; Forskolin 1.25 μM + MK 678 10 nM, Peptide 1 1 μM): 1.14 pM per 4 × 10^4 cells | cAMP ([2]; Forskolin 1.25 μM + MK 678 10 nM, Peptide 1 10 μM): 2.69 pM per 4 × 10^4 cells | cAMP ([2]; Forskolin 1.25 μM + MK 678 10 nM, Peptide 1 50 μM): 3.32 pM per 4 × 10^4 cells | cAMP ([2]; Forskolin 1.25 μM, no MK 678, Peptide 1 1 μM): 2.57 pM per 4 × 10^4 cells | cAMP ([2]; Forskolin 1.25 μM, no MK 678, Peptide 1 10 μM): 3.05 pM per 4 × 10^4 cells | cAMP ([2]; Forskolin 1.25 μM, no MK 678, Peptide 1 50 μM): 3.33 pM per 4 × 10^4 cells
Structure (SMILES): CC[C@@H](C)[C@@H](NC(=O)[C@@H](Cc1ccccc1)NC(=O)[C@@H](Cc1c[nH]cn1)NC(C)=O)C(=O)N[C@H](CCCNC(=N)N)C(=O)N[C@H](Cc1c[nH]c2ccccc12)C(=O)N[C@H](Cc1ccccc1)C(N)=O [Peptide 1, h-f-i-r-w-f] (Ac-[dH][dF][dI][dR][dW][dF]-NH2)
mode of antagonism from agonist dose response curves ([2]; S-14 or MK678 dose response with or without peptide 1): directly competing with the SRIF agonists | forskolin-stimulated cAMP levels in the absence of SRIF (inverse agonist activity) ([2]; no added SRIF): causes an increase in forskolin-stimulated cAMP levels even in the absence of SRIF
